Values joined by “and” are separate entries in the source; they are usually repeats but may differ in a detail not shown here. Equal entries are not always repeated.
Columns and labels:
[1] = target: IMP-4; experiment: IC50 enzyme inhibition assay; format: biochemical; details: IMP-4 50 nM, 1 h preincubation, MER substrate
Protocol: (§1) Freshly prepared 50 nM of Zn2-NDM-1, Zn2-VIM-2, or Zn2-IMP-4 in 50 mM HEPES/Na pH 7.0, 100 mM NaCl were first incubated with various concentrations of CBS for 1 h at 25 °C, then mixed with equal volume of 0.2 mM MER. The assay was performed in a 1 cm quartz cuvette using the kinetic mode on a Varian Cary50 UV-visible spectrophotometer at 25 °C. The decrease in absorbance at 300 nm due to ring-opening of MER was monitored every second for a duration of 10 min until the reaction was completed. The initial rates were extracted and calculated from each reaction curves for fitting IC50 curves.

[2] = test system: NDM-HK (NDM-1^+); experiment: microbe, parasite or virus in culture; format: cell-based, E. coli
Protocol: (§2) MIC values were determined by standard broth micro-dilution method (Clinical and Laboratory Standards Institute (CLSI) M100-S20, 2010)[64]. Briefly, bacterial cells were cultured in LB broth overnight at 37 °C at 250 rpm and the OD was measured at 600 nm (OD600). The bacterial density was adjusted to about 1 × 10^6 CFU mL^−1 and checked by CFU counting on agar plates afterwards. Tested antibiotics or Bi(III) compounds were added triplicately into individual wells of flat-bottomed 96-well plates and performed 2-fold serial dilution, followed by addition of prepared bacterial inocula. The plate was then incubated at 37 °C for overnight. […] The MIC was determined as the lowest concentration of a drug that could inhibit the growth of microorganism by both visual reading and OD reading at 600 nm using a microtiter plate reader.
(§3) Resulting growth (or lack of growth) was examined after overnight culturing and the lowest concentration that inhibits 99.9% of the original culture was taken as MBC.
(§4) Other procedures were kept strictly the same. […] Synergism was defined when FICI ≤ 0.5, indifference was defined when FICI > 0.5 and < 4, and antagonism was defined when FICI≥4[65]. […] All of the determinations were performed at least in triplicate on different days.

[3] = test system: IMP-BL21 (IMP-4^+); experiment: microbe, parasite or virus in culture; format: cell-based, E. coli
Protocol: as §2, §3, §4

[4] = test system: VIM-BL21 (VIM-2^+); experiment: microbe, parasite or virus in culture; format: cell-based, E. coli
Protocol: as §2, §3, §4

[5] = target: T1, NDM-1 (Klebsiella pneumoniae, UniProt C7C422); format: biochemical; details: NDM-1 50 nM, 1 h preincubation, MER substrate
Protocol: as §1
Target sequence in this assay (C7C422 29-270, looked up, species assumed): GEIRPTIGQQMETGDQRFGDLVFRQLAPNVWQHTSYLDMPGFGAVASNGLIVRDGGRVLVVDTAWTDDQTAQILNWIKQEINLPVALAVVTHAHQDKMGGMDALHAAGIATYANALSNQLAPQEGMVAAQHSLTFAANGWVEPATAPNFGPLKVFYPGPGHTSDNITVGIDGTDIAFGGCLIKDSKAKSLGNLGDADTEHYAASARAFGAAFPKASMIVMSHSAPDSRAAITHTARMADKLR

[6] = target: VIM-2 (Escherichia coli, UniProt Q5U7L7); format: biochemical; details: VIM-2 50 nM, 1 h preincubation, MER substrate
Protocol: as §1

[7] = target: T1, NDM-1; format: cell-based; design: endogenous in cells; host or cells: E. coli clinical isolate NDM-HK; details: NDM-HK cultured with 100 µM compound; control 50.1 °C
Protocol: The cellular thermal shift assay was performed according to a standard method. Clinical isolate of NDM-1-positive E. coli (NDM-HK) was cultured overnight in the absence or presence of 100 µM Bi(III) compounds, i.e., CBS, Bi(NAC)3, Bi(NIT)3. The bacterial pellets were harvested and washed with PBS for 4 times. The cell suspensions were aliquoted into PCR tubes and heat treatment was performed at the designated temperature ranging from 40 °C to 70 °C for 3 min in a 96-well thermal cycler. The tubes were cooled immediately at room temperature for another 3 min after heating and the heating procedures were repeated for three cycles. For the cell lysis, the samples were frozen–thawed for two cycles in liquid nitrogen and thermal cycler set at 25 °C. The samples were vortexed gently after each cycle and were centrifuged at 20,000 × g to obtain the supernatant when the second cycle was finished. All the samples were subjected to western blot analysis for detection and quantification of NDM-1 content as described above.
Target sequence in this assay (C7C422 29-270 limits assumed): as the sequence (C7C422 29-270, looked up, species assumed) above

[8] = test system: NDM-K. pneumonia (NDM-1^+); experiment: Microdilution MIC/MBC and checkerboard assay; format: cell-based, Klebsiella pneumonia
Protocol: as §2, §3, §4

[9] = test system: NDM-HK; experiment: Resistance study: MPC and mutation frequency; format: cell-based, E. coli; details: ≥64 µg mL^−1 Bi(NAC)3
[10] = test system: NDM-C. freundii (NDM-1^+); experiment: Microdilution MIC/MBC and checkerboard assay; format: cell-based, Citrobacter freundii
Protocol: as §2, §3, §4

[11] = test system: MBL-positive bacterial strains; details: with MER, different MBL-positive strains
Protocol: as §2, §3, §4

[12] = test system: NDM-HK; experiment: Time kill assay; format: cell-based, E. coli; details: MER 24 µg mL^−1 + Bi(NAC)3 32 µg mL^−1
Protocol: Time kill assay was used to further explore the synergy between MER and Bi(III) compounds. In a typical assay, NDM-HK was cultured overnight and diluted 1:250 into LB broth at 37 °C for 3 h to reach log phase. The initial bacterial density was adjusted to ~10^7 CFU mL^−1 and then exposed to MER, Bi(III) compounds either alone or in combination. LB broth with no drugs served as a control. Aliquots of bacterial suspension were withdrawn at different time intervals (0, 1, 2, 4, 6, 8, and 24 h) for inspection of bacterial viability by agar plating. The concentrations of the drugs used in the test are 24 µg mL^−1 for MER, 64 µg mL^−1 for CBS, and 32 µg mL^−1 for Bi(NAC)3. Data from three independent experiments were averaged and plotted as log10 CFU mL^−1 vs. time (h) for each time point over 24 h. All assays were triplicated and performed three times on different days.

[13] = test system: NDM-HK; details: metal compound 10, 50, 200 µM with MER at ½MIC (8 μg mL^−1), 24 h
Protocol: Metal salts used for the screening involved bismuth nitrate (Bi(III)), gallium nitrate (Ga(III)), sodium stibogluconate (Sb(V)), chromium chloride (Cr(III)), cobalt chloride (Co(II)), nickel chloride (Ni(II)), ruthenium chloride (Ru(II)), and copper sulfate (Cu(II)). Briefly, different concentrations (10, 50, and 200 μM) of metal compounds were added to LB medium containing 8 μg mL^−1 of MER in 96-well plates. About 2 × 10^6 CFU mL^−1 logarithmic cultures of NDM-HK were added to each well of the plates and co-incubated for overnight. The growth inhibition of bacteria was monitored by OD reading at 600 nm and serial dilution in LB agar plate. Wells with no antibiotics or metal compounds served as growth controls, and wells with no bacteria added served as background controls. Each test was performed in triplicate. The inhibition was calculated as [1−(ODsample−ODbackground)/(ODcontrol−ODbackground)] ×100%. CFU was counting by 10-fold serial dilution in PBS and 10 μL was spotted in LB agar plate.

SMILES: CC(=O)N[C@@H](C[S][Bi]([S]C[C@H](NC(C)=O)C(=O)O)[S]C[C@H](NC(C)=O)C(=O)O)C(=O)O [Bi(NAC)3]
- IC50 [1]: 2800 ± 790 nM
- decrease in the MIC of MER ([2]; NDM-1-positive E. coli): 32 fold
- MBC of Bi(III) compound/inhibitor alone ([2]; NDM-HK): > 256 µg/mL
- MBC of MER in combination with compound at 32 µg mL^-1 ([2]; NDM-HK): 0.5 µg/mL
- MIC of Bi(III) compound/inhibitor alone ([2]; NDM-HK): 128 µg/mL
- MIC of MER in combination with compound at 32 µg mL^-1 ([2]; NDM-HK): 0.5 µg/mL
- decrease in the MIC of MER ([3]; IMP-4-positive E. coli): 16 fold
- MBC of MER in combination with compound at 32 µg mL^-1 ([3]; IMP-BL21): 2 µg mL^-1 and 2/2 µg mL^-1
- MIC of MER in combination with compound at 32 µg mL^-1 ([3]; IMP-BL21): 2 µg mL^-1 and 2/2 µg mL^-1
- FICI ([3]; IMP-BL21, MER + compound, 256 µg mL^-1 set as MIC of Bi(III)): 0.125
- decrease in the MIC of MER ([4]; VIM-2-positive E. coli): 64 fold
- MBC of MER in combination with compound at 32 µg mL^-1 ([4]; VIM-BL21): 1 µg/mL
- MIC of MER in combination with compound at 32 µg mL^-1 ([4]; VIM-BL21): 0.5 µg/mL
- FICI ([4]; VIM-BL21, MER + compound, 256 µg mL^-1 set as MIC of Bi(III)): 0.063
- IC50 [5]: 1650 ± 600 nM
- IC50 [6]: 2650 ± 570 nM
- NDM-1 melting temperature, treated group [7]: 47.7 °C
- MBC of MER in combination with compound at 32 µg mL^-1 ([8]; NDM-K. pneumonia (NDM-KP)): 2 µg/mL
- MIC of MER in combination with compound at 32 µg mL^-1 ([8]; NDM-K. pneumonia (NDM-KP)): 1 µg/mL
- MBC of Bi(III) compound alone ([8]; NDM-KP): > 256 µg/mL
- MIC of Bi(III) compound alone ([8]; NDM-KP): 256 µg/mL
- FICI ([8]; NDM-KP, MER + compound, 256 µg mL^-1 set as MIC of Bi(III)): 0.188
- MER MPC with Bi(NAC)3 [9]: 2 fold MIC
- MBC of MER in combination with compound at 32 µg mL^-1 ([10]; NDM-C. freundii (NDM-CF)): 0.5 µg mL^-1 and 0.5/0.5 µg mL^-1
- MIC of MER in combination with compound at 32 µg mL^-1 ([10]; NDM-C. freundii (NDM-CF)): 0.5 µg mL^-1 and 0.5/0.5 µg mL^-1
- MBC of Bi(III) compound alone ([10]; NDM-CF): > 256 µg/mL
- MIC of Bi(III) compound alone ([10]; NDM-CF): 256 µg/mL
- FICI ([10]; NDM-CF, MER + compound, 256 µg mL^-1 set as MIC of Bi(III)): 0.188
- FICI values [11]: 0.063 to 0.188
- time to eradicate the bacterium completely [12]: ≤ 6 h

SMILES: O=[N+]([O-])[O-].O=[N+]([O-])[O-].O=[N+]([O-])[O-].[Ga+3] [gallium nitrate]
- growth inhibition based on optical density (OD) reading [13]: > 90%
- MIC of Bi(III) compound/inhibitor alone ([2]; NDM-HK): greater than 256 µg mL^-1

Source: article PMC5789847, “Bismuth antimicrobial drugs serve as broad-spectrum metallo-β-lactamase inhibitors” (Nature Communications, 2018)
